The test can be described thus: Body weight of allergic-rhinitis-sensitized Balb/C mice after intranasal rhamnolipid doses (Example 1). It is filed as in vivo. As to conditions: 0.5% solution in saline, 5 μl per nostril at two time points on Day 37 (total 20 μl). From the text:
Originally, the objective of this study was to determine the effects of treatment with three different pharmaceutical formulations of rhamnolipids within the context of an allergic rhinitis study in mice. However, the weight loss effects due to treatment with the various rhamnolipids were unexpectedly discovered during the course of this study. Materials Animal: Balb/C mice were used in this study and were eight weeks old. The treatment groups and the placebo group were each composed of 10 mice. Allergenization was performed in a similar fashion as reported in the literature. Sensitization Materials: The following were used to sensitize and induce allergic rhinitis in the mice:
Mice were sensitized once-weekly with four intraperitoneal injections of OVA/Alum (Day 0, […], 14 and 21). From Day 22-39, anesthetized mice were administered once-daily doses of the OVA stock solution instilled in each nostril.
On Day 37, mice were assigned to one of three rhamnolipid treatment groups or a placebo group. The rhamnolipid treatment groups received a rhamnolipid mixture containing RPI-100, RPI-200, or RPI-300. […] Body weights of the mice were measured and recorded on Days 35, 37, and 39 as part of a standard animal safety observation protocol. […]

In the case of `CCCCCCCC(CC(=O)O)OC(=O)CC(CCCCCCC)O[C@@H]1O[C@@H](C)[C@H](O)[C@@H](O)[C@H]1O` (stereo partly drawn) [RPI-200, L-rhamnosyl-β-hydroxydecanoyl-β-hydrocydecanoate], the “body weight, 2 days post-treatment (Day 39) compared with 2 days pre-treatment (Day 35), versus placebo” value is listed as “statistically significant reduction in body weight”.

Values taken from patent US9968626B2, “Method for treating obesity” (Rhamnopharma Inc., priority 2011, dated 2018).
